# Legend:
# [1] = molecular target: NAMPT (human, recombinant, C-terminally His-tagged) (Homo sapiens, UniProt P43490); assay: Time-Resolved Fluorescence Resonance Energy Transfer (TR-FRET) Binding Assay of NAMPT; details: 6.8 nM NAMPT, 200 nM probe, equilibrated 3 hours, absence of substrates
# Procedure, shortened: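 Recombinant C-terminally His-tagged human NAMPT (6.8 nM) incubated 3 h at room temperature with 200 nM Oregon Green 488–labelled nicotinamide-competitive probe and 1 nM Tb-anti-His antibody in HEPES pH 7.5, 2% DMSO. TR-FRET ratio Em520/Em495 normalized to controls; IC50 from four-parameter logistic fit.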
# NAMPT = NAMPT (Homo sapiens, UniProt P43490); assay: Time-Resolved Fluorescence Resonance Energy Transfer (TR-FRET) Binding Assay of NAMPT with PRPP; details: 2 nM NAMPT, 2 nM probe, 200 uM PRPP and 2.5 mM ATP, equilibrated 16 hours
# Chain of NAMPT (P43490 whole entry): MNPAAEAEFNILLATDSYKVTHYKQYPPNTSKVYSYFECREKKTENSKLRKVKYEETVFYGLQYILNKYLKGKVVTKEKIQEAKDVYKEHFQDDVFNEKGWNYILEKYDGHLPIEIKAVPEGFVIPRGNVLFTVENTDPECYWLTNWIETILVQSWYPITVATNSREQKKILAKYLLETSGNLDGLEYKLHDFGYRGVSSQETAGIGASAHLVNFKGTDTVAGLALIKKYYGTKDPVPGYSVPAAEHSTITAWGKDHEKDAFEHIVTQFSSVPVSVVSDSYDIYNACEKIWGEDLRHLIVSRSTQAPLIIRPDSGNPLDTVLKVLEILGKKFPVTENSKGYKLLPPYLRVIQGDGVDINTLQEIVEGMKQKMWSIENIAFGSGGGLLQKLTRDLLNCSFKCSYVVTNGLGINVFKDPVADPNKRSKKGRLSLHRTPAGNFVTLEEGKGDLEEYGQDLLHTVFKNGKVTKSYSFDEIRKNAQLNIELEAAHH
# Procedure, shortened: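 Final mix: 2 nM NAMPT, 2 nM probe, 1 nM Tb-anti-His antibody, 200 uM PRPP, 2.5 mM ATP, 2% DMSO in 1× assay buffer. Equilibrated 16 hours before TR-FRET read, allowing possible enzymatic modification of compounds.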
# Chain of NAMPT (human, recombinant, C-terminally His-tagged) (P43490 whole entry): as above
Structure (SMILES),IC50 [1] [nM],IC50 (NAMPT) [nM]
"N#Cc1cccc(C(=O)N2CCC(c3ccc(NC(=O)C4CN(c5cccnn5)C4)cc3)CC2)c1 [Example 352, N-{4-[1-(3-cyanobenzoyl)piperidin-4-yl]phenyl}-1-(pyridazin-3-yl)azetidine-3-carboxamide]",95.8,0.615
"N#Cc1ccc(C(=O)N2CCC(c3ccc(NC(=O)C4CN(c5cccnn5)C4)cc3)CC2)cc1 [Example 353, N-{4-[1-(4-cyanobenzoyl)piperidin-4-yl]phenyl}-1-(pyridazin-3-yl)azetidine-3-carboxamide]",88.2,0.472
"O=C(Nc1ccc(C2CCN(C(=O)c3cccc(C(F)(F)F)c3)CC2)cc1)C1CN(c2cccnn2)C1 [Example 354, 1-(pyridazin-3-yl)-N-(4-{1-[3-(trifluoromethyl)benzoyl]piperidin-4-yl}phenyl)azetidine-3-carboxamide]",82.8,0.837
"O=C(Nc1ccc(C2CCN(C(=O)c3ccc(C(F)(F)F)cc3)CC2)cc1)C1CN(c2cccnn2)C1 [Example 355, 1-(pyridazin-3-yl)-N-(4-{1-[4-(trifluoromethyl)benzoyl]piperidin-4-yl}phenyl)azetidine-3-carboxamide]",115,0.986
"O=C(Nc1ccc(C2CCN(C(=O)c3cccc(OC(F)(F)F)c3)CC2)cc1)C1CN(c2cccnn2)C1 [Example 356, 1-(pyridazin-3-yl)-N-(4-{1-[3-(trifluoromethoxy)benzoyl]piperidin-4-yl}phenyl)azetidine-3-carboxamide]",67.7,0.878
"O=C(Nc1ccc(C2CCN(C(=O)c3cc(Cl)cc(Cl)c3)CC2)cc1)C1CN(c2cccnn2)C1 [Example 365, N-{4-[1-(3,5-dichlorobenzoyl)piperidin-4-yl]phenyl}-1-(pyridazin-3-yl)azetidine-3-carboxamide]",50.1,1.05
"O=C(Nc1ccc(C2CCN(C(=O)Cc3ccccc3F)CC2)cc1)C1CN(c2cccnn2)C1 [Example 366, N-(4-{1-[(2-fluorophenyl)acetyl]piperidin-4-yl}phenyl)-1-(pyridazin-3-yl)azetidine-3-carboxamide]",35.1,0.681
"O=C(Nc1ccc(C2CCN(C(=O)Cc3cccc(F)c3)CC2)cc1)C1CN(c2cccnn2)C1 [Example 367, N-(4-{1-[(3-fluorophenyl)acetyl]piperidin-4-yl}phenyl)-1-(pyridazin-3-yl)azetidine-3-carboxamide]",33.7,0.735
"O=C(Nc1ccc(C2CCN(C(=O)Cc3ccc(F)cc3)CC2)cc1)C1CN(c2cccnn2)C1 [Example 368, N-(4-{1-[(4-fluorophenyl)acetyl]piperidin-4-yl}phenyl)-1-(pyridazin-3-yl)azetidine-3-carboxamide]",64,0.635
"O=C(Nc1ccc(C2CCN(C(=O)Cc3ccccc3Cl)CC2)cc1)C1CN(c2cccnn2)C1 [Example 369, N-(4-{1-[(2-chlorophenyl)acetyl]piperidin-4-yl}phenyl)-1-(pyridazin-3-yl)azetidine-3-carboxamide]",18.3,0.479
"O=C(Nc1ccc(C2CCN(C(=O)Cc3ccc(Cl)cc3)CC2)cc1)C1CN(c2cccnn2)C1 [Example 370, N-(4-{1-[(4-chlorophenyl)acetyl]piperidin-4-yl}phenyl)-1-(pyridazin-3-yl)azetidine-3-carboxamide]",30.5,0.555
"O=C(Nc1ccc(C2CCN(C(=O)Cc3ccc(C(F)(F)F)cc3)CC2)cc1)C1CN(c2cccnn2)C1 [Example 371, 1-(pyridazin-3-yl)-N-[4-(1-{[4-(trifluoromethyl)phenyl]acetyl}piperidin-4-yl)phenyl]azetidine-3-carboxamide]",56.7,0.438

# Continued, values first:
IC50 [1] [nM],IC50 (NAMPT) [nM],Structure (SMILES)
15.3,0.628,"O=C(Nc1ccc(C2CCN(C(=O)c3cccc(F)c3)CC2)cc1)C1CN(c2cccnn2)C1 [Example 348, N-{4-[1-(3-fluorobenzoyl)piperidin-4-yl]phenyl}-1-(pyridazin-3-yl)azetidine-3-carboxamide]"
59.5,0.738,"O=C(Nc1ccc(C2CCN(C(=O)c3ccc(F)cc3)CC2)cc1)C1CN(c2cccnn2)C1 [Example 349, N-{4-[1-(4-fluorobenzoyl)piperidin-4-yl]phenyl}-1-(pyridazin-3-yl)azetidine-3-carboxamide]"
4.62,0.642,"O=C(Nc1ccc(C2CCN(C(=O)c3ccccc3Cl)CC2)cc1)C1CN(c2cccnn2)C1 [Example 350, N-{4-[1-(2-chlorobenzoyl)piperidin-4-yl]phenyl}-1-(pyridazin-3-yl)azetidine-3-carboxamide]"
37.1,0.765,"O=C(Nc1ccc(C2CCN(C(=O)c3cccc(Cl)c3)CC2)cc1)C1CN(c2cccnn2)C1 [Example 351, N-{4-[1-(3-chlorobenzoyl)piperidin-4-yl]phenyl}-1-(pyridazin-3-yl)azetidine-3-carboxamide]"
17.7,1.14,"Cc1cccc(C(=O)N2CCC(c3ccc(NC(=O)C4CN(c5cccnn5)C4)cc3)CC2)c1C [Example 357, N-{4-[1-(2,3-dimethylbenzoyl)piperidin-4-yl]phenyl}-1-(pyridazin-3-yl)azetidine-3-carboxamide]"
15.9,0.815,"Cc1ccc(C(=O)N2CCC(c3ccc(NC(=O)C4CN(c5cccnn5)C4)cc3)CC2)c(C)c1 [Example 358, N-{4-[1-(2,4-dimethylbenzoyl)piperidin-4-yl]phenyl}-1-(pyridazin-3-yl)azetidine-3-carboxamide]"
21.3,0.869,"Cc1ccc(C)c(C(=O)N2CCC(c3ccc(NC(=O)C4CN(c5cccnn5)C4)cc3)CC2)c1 [Example 359, N-{4-[1-(2,5-dimethylbenzoyl)piperidin-4-yl]phenyl}-1-(pyridazin-3-yl)azetidine-3-carboxamide]"
22,0.782,"Cc1ccc(C(=O)N2CCC(c3ccc(NC(=O)C4CN(c5cccnn5)C4)cc3)CC2)cc1C [Example 360, N-{4-[1-(3,4-dimethylbenzoyl)piperidin-4-yl]phenyl}-1-(pyridazin-3-yl)azetidine-3-carboxamide]"
37.4,0.988,"Cc1cc(C)cc(C(=O)N2CCC(c3ccc(NC(=O)C4CN(c5cccnn5)C4)cc3)CC2)c1 [Example 361, N-{4-[1-(3,5-dimethylbenzoyl)piperidin-4-yl]phenyl}-1-(pyridazin-3-yl)azetidine-3-carboxamide]"
15.2,0.832,"O=C(Nc1ccc(C2CCN(C(=O)c3ccc(Cl)cc3Cl)CC2)cc1)C1CN(c2cccnn2)C1 [Example 362, N-{4-[1-(2,4-dichlorobenzoyl)piperidin-4-yl]phenyl}-1-(pyridazin-3-yl)azetidine-3-carboxamide]"
10.4,0.798,"O=C(Nc1ccc(C2CCN(C(=O)c3cc(Cl)ccc3Cl)CC2)cc1)C1CN(c2cccnn2)C1 [Example 363, N-{4-[1-(2,5-dichlorobenzoyl)piperidin-4-yl]phenyl}-1-(pyridazin-3-yl)azetidine-3-carboxamide]"
36.9,0.334,"O=C(Nc1ccc(C2CCN(C(=O)c3ccc(Cl)c(Cl)c3)CC2)cc1)C1CN(c2cccnn2)C1 [Example 364, N-{4-[1-(3,4-dichlorobenzoyl)piperidin-4-yl]phenyl}-1-(pyridazin-3-yl)azetidine-3-carboxamide]"

# — patent US8975398B2, “NAMPT inhibitors” (AbbVie Inc., priority 2012, dated 2015)
